Assay results reported in patent publication US20040014946A1, “Protein interaction method and composition” (priority 2002, published 2004).

Test system: AbI Protein Tyrosine Kinase
Assay: On-chip phosphorylation inhibition screening assay (biofunction chip, MALDI MS)
Format: biochemical
Settings: 250 nM substrate, 23° C.
Method: FIG. 8 illustrates a biofunction chip with enzymatic functions. The reaction components consisted of 0.4U/well of AbI at pH 7.5, 0.1 mM ATP, and 400 nM substrate. 4 μl were added per well, and the reaction was incubated at 23° C. for 90 minutes. On-chip phosphorylation in rabbit reticulocyte extract with various substrate concentrations (0, 10, 30, 100, and 300 nM) is shown in FIG. 10. Reproducibility of the spectra in the same scale and in different scales normalized to the phosphorylated peaks are shown in FIG. 13. The percent phosphorylation is determined over time for 1 Unit of substrate per well versus 0.12 Unit substrate per well.
Screening assays for ATP analogs or substrate analogs capable of inhibiting phosphorylation were also tested. […] 250 nM substrate, 5 μM ATP, 20 U/well AbI TK, and 0, 4, 8, 12, 16, and 20 μM ATTP were incubated at 23° C. for 60 minutes. […] 250 nM substrate, 5 μM ATP, 20 U/well AbI TK, and 0, 5, 10, 15 and 40 μM Genistein were incubated at 23° C. for 60 minutes. […] 250 nM substrate, 100 μM ATP, 0.4 Units/well AbI TK, and 0, 1, 2, 4, 8, and 12 μM Erbstain were incubated at 23° C. for 60 minutes.
The components of biofunction chips are useful for kinase studies, histone acetylation, DNA methylation and protease studies. […]

In the case of O=c1c(-c2ccc(O)cc2)coc2cc(O)cc(O)c12 [Genistein], the inhibition of phosphorylation (5 μM ATP, 20 U/well AbI TK, 0, 5, 10, 15 and 40 μM Genistein, 60 minutes (FIG. 15)) is reported as “inhibition of phosphorylation”.

With O=CN/C=C/c1cc(O)ccc1O [Erbstain] the inhibition of phosphorylation (100 μM ATP, 0.4 Units/well AbI TK, 0, 1, 2, 4, 8 and 12 μM Erbstain, 60 minutes (FIG. 16)) was “inhibition of phosphorylation”.
